In ChEMBL document CHEMBL1201862, “PubChem BioAssay data set” (2004):
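In this assay, cells in 96-well plates receive the compound at five concentrations for 48 hours. Endpoints are linearly interpolated between the surrounding concentrations. GI50: concentration for 50% inhibition of growth.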 The source made the active and inactive calls. Rule as the data show it: active = GI50 up to about 1.1 µM and inactive = higher.

Columns and labels:
Experiment in all cases: DTP human tumour cell line panel, 48 h
786-0 = system: 786-0
UACC-257 = system: UACC-257
KM12 = system: KM12
SF-295 = system: SF-295
ACHN = system: ACHN
OVCAR-5 = system: OVCAR-5
HCT-15 = system: HCT-15
COLO 205 = system: COLO 205
HOP-92 = system: HOP-92
HT-29 = system: HT-29
UO-31 = system: UO-31
NCI-H460 = system: NCI-H460
SK-MEL-2 = system: SK-MEL-2
SK-MEL-5 = system: SK-MEL-5
Hs-578T = system: Hs-578T
MCF7 = system: MCF7
DU-145 = system: DU-145
MDA-MB-231 = system: MDA-MB-231

| Structure (SMILES) | GI50 (786-0) | GI50 (UACC-257) | GI50 (KM12) | GI50 (SF-295) | GI50 (ACHN) | GI50 (OVCAR-5) | GI50 (HCT-15) [µM] | GI50 (COLO 205) | GI50 (HOP-92) | GI50 (HT-29) | GI50 (UO-31) | GI50 (NCI-H460) | GI50 (SK-MEL-2) | GI50 (SK-MEL-5) | GI50 (Hs-578T) | GI50 (MCF7) | GI50 (DU-145) | GI50 (MDA-MB-231) |
| --- | --- | --- | --- | --- | --- | --- | --- | --- | --- | --- | --- | --- | --- | --- | --- | --- | --- | --- |
| COC(=O)C(C(=O)C(=O)Nc1c(C)cccc1C)c1cnc2ccccc2n1 (stereo not drawn) | > 100 µM (inactive) | > 100 µM (inactive) | > 100 µM (inactive) | > 100 µM (inactive) | > 100 µM (inactive) | > 100 µM (inactive) | > 100 | > 100 µM (inactive) | > 100 µM (inactive) | > 100 µM (inactive) | > 100 µM (inactive) | > 100 µM (inactive) | > 100 µM (inactive) | > 100 µM (inactive) | – | – | – | – |
| CCCCCCCCCCCC(=O)OC(COC(N)=O)COc1ccc(Cl)cc1 (stereo not drawn) | 35.8 µM (inactive) | 19.1 µM (inactive) | 25.8 µM (inactive) | 20.3 µM (inactive) | > 100 µM (inactive) | – | 28 | 17 µM (inactive) | – | 20 µM (inactive) | 32.9 µM (inactive) | 23.7 µM (inactive) | 24.5 µM (inactive) | 17.6 µM (inactive) | – | – | – | – |
| CCCCn1/c(=N/C(=S)N(C)C)ss/c1=N\C(=S)N(C)C | > 100 µM (inactive) | > 100 µM (inactive) | > 100 µM (inactive) | > 100 µM (inactive) | > 100 µM (inactive) | > 100 µM (inactive) | > 100 | – | > 100 µM (inactive) | > 100 µM (inactive) | > 100 µM (inactive) | > 100 µM (inactive) | > 100 µM (inactive) | – | – | – | – | – |
| CN(C)c1ccc2c(=O)c3ccccc3oc2n1 | > 100 µM (inactive) | > 100 µM (inactive) | 69.7 µM (inactive) | > 100 µM (inactive) | 42 µM (inactive) | > 100 µM (inactive) | > 100 | > 100 µM (inactive) | > 100 µM (inactive) | – | 69.2 µM (inactive) | > 100 µM (inactive) | > 100 µM (inactive) | 38.6 µM (inactive) | – | – | – | – |
| O=C(CCC1C(=O)NC(=S)NC1=O)c1ccc2ccccc2c1 | > 100 µM (inactive) | > 100 µM (inactive) | > 100 µM (inactive) | > 100 µM (inactive) | > 100 µM (inactive) | > 100 µM (inactive) | > 100 | > 100 µM (inactive) | > 100 µM (inactive) | > 100 µM (inactive) | > 100 µM (inactive) | > 100 µM (inactive) | > 100 µM (inactive) | > 100 µM (inactive) | – | – | – | – |
| CC(=O)NC1C(=O)CC(c2ccccc2)N(C)C1c1ccccc1 (stereo not drawn) | > 100 µM (inactive) | > 100 µM (inactive) | > 100 µM (inactive) | > 100 µM (inactive) | > 100 µM (inactive) | > 100 µM (inactive) | > 100 | > 100 µM (inactive) | 82.6 µM (inactive) | 78 µM (inactive) | 94.8 µM (inactive) | > 100 µM (inactive) | > 100 µM (inactive) | > 100 µM (inactive) | – | – | – | – |
| CC(O[Si](c1ccccc1)(c1ccccc1)C(C)(C)C)[C@H](NC(=O)OC(C)(C)C)C(=O)O[Si](c1ccccc1)(c1ccccc1)C(C)(C)C (stereo partly drawn) | 13.2 µM (inactive) | 14.9 µM (inactive) | 9.91 µM (inactive) | 8.04 µM (inactive) | 10.8 µM (inactive) | 15.9 µM (inactive) | 5.24 | 13.2 µM (inactive) | 10.9 µM (inactive) | 11.7 µM (inactive) | 13.2 µM (inactive) | 11.5 µM (inactive) | – | 15.7 µM (inactive) | 19.2 µM (inactive) | 17.9 µM (inactive) | 12.6 µM (inactive) | – |
| CC12CCC3(C1)[C@H](CC2=O)C[C@@H](OC(=O)c1ccccc1)C1C(C)(CO)CCC[C@@]13C (stereo partly drawn) | 1.82 µM (inactive) | 0.149 µM (active) | 2.9 µM (inactive) | 0.322 µM (active) | 0.342 µM (active) | 2 µM (inactive) | 1.5 | 4.35 µM (inactive) | 3.65 µM (inactive) | 3.56 µM (inactive) | 4.15 µM (inactive) | 1.05 µM (active) | 8.32 µM (inactive) | < 0.01 µM (active) | – | – | – | – |
| COc1ccc(NC(=O)C(=O)Cc2nc3ccc([N+](=O)[O-])cc3nc2O)c(OC)c1 | > 100 µM (inactive) | > 100 µM (inactive) | > 100 µM (inactive) | > 100 µM (inactive) | > 100 µM (inactive) | > 100 µM (inactive) | > 100 | > 100 µM (inactive) | > 100 µM (inactive) | > 100 µM (inactive) | > 100 µM (inactive) | > 100 µM (inactive) | > 100 µM (inactive) | > 100 µM (inactive) | – | – | – | – |
| COc1cc([C@@H]2c3cc4c(c(O)c3C[C@H]3COC(=O)[C@@H]32)OCO4)cc(OC)c1OC [BETA-PELTATIN A] | 0.0241 µM (active) | – | 0.015 µM (active) | 0.0238 µM (active) | 0.0241 µM (active) | 21.4 µM (inactive) | 0.015 | 0.0238 µM (active) | 0.015 µM (active) | – | 0.0693 µM (active) | 0.0254 µM (active) | 0.015 µM (active) | – | 0.0241 µM (active) | 0.015 µM (active) | < 0.0241 µM (active) | 0.00596 µM (active) |
